In patent US9700501B2, “Use of indole compounds as a cosmetic” (MERCK PATENT GESELLSCHAFT MIT BESCHRANKTER HAFTUNG, priority 2008, dated 2017):

Key:
[1] = test system: PPAR gamma; assay: PPAR-gamma transactivation assay (luciferase reporter, CV1 cells expressing PPARγ); type: cell-based, human; details: for Fold Activation PPAR gamma: 36 h incubation, luciferase activity relative to control
Text: (§1) Analysis of the activation of PPARα and PPARγ is based on the transfection of a DNA allowing the expression of a reporter gene (the gene of luciferase) under the control of the PPARs, either endogenous in the case of PPARγ or exogenous in the case of PPARα. The reporter plasmid J3TkLuc comprises three copies of the response element for PPARs of the human apo A-II gene (Staels, B et al. (1995), J. Clin. Invest., 95, 705-712) which are cloned upstream of the promoter of the thymidine kinase gene of the herpes simplex virus in the plasmid pGL3. This reporter gene was obtained by subcloning, in the plasmid pGL3, the plasmid J3TkCAT described above (Fajas, L et al. (1997), J. Biol. Chem., 272, 18779-18789). […] These cells were inoculated at the rate of 20,000 cells per well (96-well plates) and transfected with 150 ng of reporter DNA complexed with a mixture of lipids. In the case of the SK-Hep1 cells, an expression vector for PPARα, described by Sher, T. et al. (1993), Biochemistry, 32, 5598-5604, is cotransfected. After 5 hours, the cells are washed twice and incubated for 36 hours in the presence of the test compound in a fresh culture medium comprising 10% foetal calf serum. At the end of incubation, the cells are lysed and the luciferase activity is measured.

[2] = target: T1, PPAR alpha (Homo sapiens, UniProt Q07869); assay: PPAR-alpha transactivation assay (luciferase reporter, SK-Hep1 cells cotransfected with PPARα expression vector); type: cell-based; details: for Fold Activation PPAR alpha: 36 h incubation, luciferase activity relative to control
T1 construct: expressed in transfected cells; host or cells: human SK-Hep1 cells
T1 sequence (Q07869 1-468): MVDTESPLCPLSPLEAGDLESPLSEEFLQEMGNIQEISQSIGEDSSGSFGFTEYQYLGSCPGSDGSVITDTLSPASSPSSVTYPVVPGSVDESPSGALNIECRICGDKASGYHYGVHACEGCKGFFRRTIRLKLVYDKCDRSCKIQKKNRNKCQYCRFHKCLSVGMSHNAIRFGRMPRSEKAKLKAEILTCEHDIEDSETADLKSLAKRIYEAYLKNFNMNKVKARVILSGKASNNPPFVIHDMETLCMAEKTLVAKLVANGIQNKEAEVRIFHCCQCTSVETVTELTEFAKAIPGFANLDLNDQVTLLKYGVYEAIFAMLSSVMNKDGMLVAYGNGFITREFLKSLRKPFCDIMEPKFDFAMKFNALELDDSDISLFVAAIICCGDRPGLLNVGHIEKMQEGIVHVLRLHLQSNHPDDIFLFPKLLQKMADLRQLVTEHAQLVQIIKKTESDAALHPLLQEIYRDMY
Text: as §1

[3] = test system: epidermal differentiation proteins; assay: In vitro expression of epidermal differentiation proteins; type: cell-based; details: own unpublished results
[4] = test system: B16-V melanoma cells; assay: Inhibition of melanin synthesis in B16-V melanoma cells (whitening activity); type: cell-based; details: 72 h, alpha-MSH stimulation, FIG. 1
Procedure: B16-V melanoma cells were incubated for 72 h with assay medium containing different amounts of test substances. The concentration depends on the results of the MTT-Assay. Only concentrations without effect on viability (after 24 h incubation) were used for further melanin evaluation. Every 24 hours medium was changed and replaced by fresh assay medium containing the compounds and alpha-MSH (stimulation of melanin synthesis). The cell number was determined and the cells got lysed using 1M NaOH. Afterwards the amount of melanin was measured at 405 nm with a microplatereader (Safire2™, Tecan). Different concentrations of synthetic melanin were used to produce a calibration curve. Melanin content was expressed as pg/cell.

`CCOC(=O)c1c(C)n(CC(C)C)c2ccc(OC(C)(C(=O)O)c3ccccc3)cc12` (stereo not shown) [Compound, 2-Phenyl-2-(1-isobutyl-2-methyl-3-ethoxycarbonyl-5-indolyloxy)-propionic acid] was tested, and the “PPAR-gamma activation (in words)” value [1] was “activator”, the “Fold Activation PPAR gamma” value ([1]; 0.1 μm) was 0.6 fold and the “Fold Activation PPAR gamma” value ([1]; 0.3 μm) was 1.8 fold. For the same compound, the “Fold Activation PPAR gamma” value ([1]; 1 μm) was 2.8 fold, the “Fold Activation PPAR gamma” value ([1]; 3 μm) was 3.0 fold and the “Fold Activation PPAR gamma” value ([1]; 6.25 μm) was 12.9 fold. For the same compound, the “Fold Activation PPAR gamma” value ([1]; 10 μm) was 4.3 fold, the “Fold Activation PPAR gamma” value ([1]; 12.5 μm) was 16.9 fold and the “Fold Activation PPAR gamma” value ([1]; 25 μm) was 18.7 fold. For the same compound, the “Fold Activation PPAR gamma” value ([1]; 30 μm) was 7.6 fold, the “Fold Activation PPAR gamma” value ([1]; 50 μm) was 18.8 fold and the “PPAR-alpha activation (in words)” value [2] was “activator”. The “Fold Activation PPAR alpha” value ([2]; 0.1 μm) was 1.0 fold, the “Fold Activation PPAR alpha” value ([2]; 0.3 μm) was 1.3 fold and the “Fold Activation PPAR alpha” value ([2]; 1 μm) was 1.9 fold. For the same compound, the “Fold Activation PPAR alpha” value ([2]; 3 μm) was 2.3 fold, the “Fold Activation PPAR alpha” value ([2]; 6.25 μm) was 10.2 fold and the “Fold Activation PPAR alpha” value ([2]; 10 μm) was 6.7 fold. The “Fold Activation PPAR alpha” value ([2]; 12.5 μm) was 21.6 fold, the “Fold Activation PPAR alpha” value ([2]; 25 μm) was 34.8 fold and the “Fold Activation PPAR alpha” value ([2]; 30 μm) was 31.1 fold. The “Fold Activation PPAR alpha” value ([2]; 50 μm) was 42.0 fold, the “expression of epidermal differentiation proteins” value [3] was “increased expression of epidermal differentiation proteins” and the melanin inhibiting activity [4] was “superb melanin inhibiting activity”. For the same compound, the “melanin inhibiting activity compared with kojic acid” value [4] was “significantly better than kojic acid”.
